{"source": "patent US20220409617A1", "about": "“Drug Formulations and Methods of Treatment for Metabolic Disorders” (The Regents of the University of California, priority 2019, published 2022)", "key": {"[1]": {"test": "Voluntary cage running in HFD-fed mice", "format": "in vivo, mouse", "from_the_text": "Exercise can mitigate the negative effects of hyper-nutrition. When provided with a running wheel, mice will voluntarily run 2-10 km per night, slowing the body weight and fat gain that normally accompany HFD feeding and improving metabolic status. To benchmark the effects of sphingolipid-like compound 893 against voluntary exercise and to determine whether the beneficial effects of these interventions are additive, 16 male, C57BL/6J mice that had been fed a HFD for 7 weeks were individually housed, provided with running wheels, and randomly assigned to receive vehicle or 120 mg/kg sphingolipid-like compound 893 on the Monday/Wednesday/Friday schedule. Rodent running activity declines under stress, and monitoring the duration and distance of voluntary wheel running also provides a holistic measure of overall mouse health. […] As expected, voluntary exercise led to weight loss in vehicle-treated mice maintained on a HFD that leveled off after the first week of intervention (FIGS. 15, 21, & 22). […] Wheel running reduced fat mass while maintaining lean mass in all groups (FIGS. 15, 22 & 23).\nTo monitor voluntary exercise, sixteen mice were singly housed in home cages equipped with running wheels; initially n=8. A magnet was affixed to each 240 mm wheel and a bicycle odometer (Sigma BC509, Sigma Sports, Chicago) used to count the number of wheel revolutions and time spent on running on the wheels. Distance run was calculated by the equation (#revolutions×running wheel circumference=distance). The wheels were cleaned and randomly re-assigned weekly to each cage to control for differences in wheel performance. Two animals in the sphingolipid-like compound 893-treated group were euthanized due to gavage errors and were excluded from the analysis resulting in n=6."}, "3T3-L1 adipocytes": {"test_system": "3T3-L1 adipocytes", "test": "Insulin-stimulated 2-deoxyglucose uptake", "format": "cell-based, mouse", "conditions": "3 h, 893 10 μM, MK-2206 2 μM", "protocol": "3T3-L1 cells were maintained in DMEM with 10% FBS and 1% penicillin-streptomycin until induced to differentiate. 3T3-L1 pre-adipocytes were differentiated as described in (M. P. Valley, et al., Anal. Biochem. 505: 43-50, 2016, the disclosure of which is incorporated herein by reference) with slight modifications. Briefly, pre-adipocytes were grown to confluence. After 2 d, cells were induced with maintenance media containing 500 μM IBMX (15879, Sigma-Aldrich, St. Louis, Mo.), 1 μM dexamethasone (D4902, Sigma-Aldrich), 5 μg/mL bovine insulin (10516, Sigma-Aldrich), and 5 μM troglitazone (50-115-0786, ApexBio). Media was changed every 2-3 d for 7 d. On day 7 post-induction, media was changed to maintenance media+5 μg/mL bovine insulin. On day 9 post-induction, media was changed to maintenance media. Mature adipocytes were used 12-14 d post-induction for all experiments. LSL-KrasG12D mouse embryonic fibroblasts (MEFs) with and without Cre-mediated deletion of the STOP cassette were obtained from David Tuveson (Cold Spring Harbor Laboratory, Cold Spring Harbor N.Y., USA) in 2000. p53^flox/flox MEFs were derived in house (2015) from C57BL/6 mice using standard techniques and immortalized by transient expression of Cre recombinase and deletion of p53. MEFs were cultured and maintained in DMEM with 10% FBS and 1% penicillin-streptomycin. […]"}, "[2]": {"test": "Fasting blood glucose and oral glucose tolerance test in HFD-fed mice", "format": "in vivo, mouse", "protocol": "Mice were fasted for 6 h prior to blood glucose testing at ZT10. When sphingolipid-like compound 893 treatment was combined with an OGTT, mice were treated at ZT6. Once baseline fasting blood glucose was determined using a handheld blood glucose meter (Prodigy Diabetes Care, Charlotte, N.C.) and a drop of blood collected from a tail vein nick, mice were gavaged with an oral glucose solution (20% w/v in water, 2 g/kg bodyweight) and blood glucose measured in a drop of tail vein blood at 0, 15, 30, 60 and 120 min. The area under the curve was determined using Graphpad Prism software."}}}
{"smiles": "CCCCCCCCc1ccc([C@H]2CCN[C@@H]2CO)cc1.Cl", "note": "[compound 893]", "values": [{"measurement": "Average time spent on running wheels each day", "setting": "[1]; HFD-fed mice with running wheels, 120 mg/kg", "result": "equivalent in vehicle- and sphingolipid-like compound 893-treated groups"}, {"measurement": "Average daily distance run", "setting": "[1]; HFD-fed mice with running wheels, 120 mg/kg Mon/Wed/Fri", "result": "2.8±1.2", "unit": "km"}, {"measurement": "Weight loss, running wheel plus treatment", "setting": "[1]; HFD-fed mice, running wheel and 120 mg/kg", "result": "even greater weight loss than observed with either treatment alone"}, {"measurement": "Insulin-stimulated glucose uptake", "setting": "3T3-L1 adipocytes", "result": "but not sphingolipid-like compound 893, impeded insulin-stimulated glucose uptake in adipocytes"}, {"measurement": "Fasting glucose and glucose disposal (OGTT)", "setting": "[2]; 60 mg/kg three days a week for 25 days", "result": "intermediate effect"}, {"measurement": "Fasting glucose and glucose disposal (OGTT)", "setting": "[2]; 120 mg/kg three days a week for 25 days", "result": "normalized both fasting glucose and glucose disposal"}]}
